The results in this text go back to patent publication US8324214B2, “1,3-dihydro-2H-pyrrolo[3,2-bpyridin-2-one derivatives, preparation thereof and therapeutic uses thereof” (Sanofi, priority 2008, dated 2012).

Series [1] concerns the target T1, human uterine oxytocin receptor (Homo sapiens, UniProt P30559).
T1 construct: expressed in transfected cells
T1 sequence (P30559 1-389): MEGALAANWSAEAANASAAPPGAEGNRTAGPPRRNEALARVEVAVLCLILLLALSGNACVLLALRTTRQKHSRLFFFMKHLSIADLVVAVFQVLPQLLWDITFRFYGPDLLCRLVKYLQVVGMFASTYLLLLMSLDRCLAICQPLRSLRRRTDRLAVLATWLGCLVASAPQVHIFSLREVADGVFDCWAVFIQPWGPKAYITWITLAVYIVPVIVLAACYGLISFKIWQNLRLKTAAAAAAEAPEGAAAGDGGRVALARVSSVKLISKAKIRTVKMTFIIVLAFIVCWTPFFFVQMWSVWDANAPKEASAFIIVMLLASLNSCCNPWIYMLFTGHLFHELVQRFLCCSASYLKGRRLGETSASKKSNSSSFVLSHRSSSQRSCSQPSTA
As to the kind of experiment: Displacement of radioiodinated oxytocin analogue at oxytocin receptors. It counts as binding. As to conditions: for IC50: affinity at human oxytocin receptors. Here is the method: The affinity of the compounds according to the invention for the oxytocin receptors was determined in an in vitro binding test using the method described by J. Elands et al. in Eur. J. Pharmacol., 1987, 147, 197-207. This method consists in studying in vitro the displacement of a radioiodinated analogue of oxytocin at the oxytocin receptors in a membrane preparation of cells transfected with the human uterine oxytocin receptor.

A further series deals with human V2 receptors (Homo sapiens, UniProt P30518). As to the kind of experiment: Affinity for vasopressin V2 receptors. It is filed as binding. The conditions noted are these: for IC50: affinity at human V2 receptors. The text has this:
Th affinity of the compounds of formula (I) according to the invention for the vasopressin V2 receptors was also studied (method described by M. Birnbaumer et al. in Nature (Lond.), 1992, 357, 333-335).

Series [2] has as its target T2, human V1a receptors (Homo sapiens, UniProt P37288). In words: Displacement of [3H]-AVP at V1a receptors (binding affinity). As to conditions: for IC50: affinity at human V1a receptors, [3H]-AVP displacement; for selectivity for the human V1a and V1b receptors for AVP (in words): versus V2 / oxytocin receptors. The protocol: The affinity of the compounds of formula (I) according to the invention for the arginine-vasopressin V1a receptors was determined in vitro using the method described by M. Thibonnier et al., J. Biol. Chem., 1994, 269, 3304-3310. This method consisted in studying in vitro the displacement of tritiated arginine-vasopressin ([3H]-AVP) at the V1a receptors present on membrane or cell preparations carrying the rat or human V1a receptors.
For orientation: Loss of bound radioactivity is the signal in a displacement assay; it reports binding, not function.

Another series deals with T3, human V1b receptors (Homo sapiens, UniProt P47901).
T3 sequence (P47901 1-424): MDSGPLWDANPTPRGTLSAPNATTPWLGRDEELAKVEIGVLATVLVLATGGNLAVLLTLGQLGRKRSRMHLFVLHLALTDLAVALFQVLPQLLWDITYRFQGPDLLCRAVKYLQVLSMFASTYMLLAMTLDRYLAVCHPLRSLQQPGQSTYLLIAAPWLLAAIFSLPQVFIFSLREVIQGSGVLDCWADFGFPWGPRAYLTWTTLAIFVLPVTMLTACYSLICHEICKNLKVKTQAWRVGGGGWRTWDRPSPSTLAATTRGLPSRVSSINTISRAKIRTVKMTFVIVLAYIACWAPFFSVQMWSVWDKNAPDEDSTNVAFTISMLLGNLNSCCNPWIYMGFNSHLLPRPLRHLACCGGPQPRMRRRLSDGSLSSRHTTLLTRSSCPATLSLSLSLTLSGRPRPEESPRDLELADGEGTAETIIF
In words: Displacement of [3H]-AVP at V1b receptors (binding affinity). The conditions noted are these: [3H]-AVP displacement. Here is the method: The affinity of the compounds of formula (I) according to the invention for the arginine-vasopressin V1b receptors was determined in vitro using the method described by Y. de Keyser et al. in Febs Letters, 1994, 356, 215-220. This method consists in studying in vitro the displacement of tritiated arginine-vasopressin ([3H]-AVP) at the V1b receptors present on cell preparations carrying the human V1b receptors.

Series [3] deals with T2, human V1a receptors. As to the kind of experiment: Intracellular calcium measurement (FLIPR) on cells expressing V1a receptors. The conditions noted are these: FLIPR and platelet aggregation tests; blocking effects caused by arginine-vasopressin. It counts as cell-based. The protocol:
The agonist or antagonist character of the compounds is determined in vitro in a test for measuring intracellular calcium (FLIPR) on cells expressing the human V1a receptors according to the general technique described in Sullivan et al, Methods Mol. Biol., 1999, 114, 125-133, using 1 μM Fluo-4 AM and in an AVP-induced platelet aggregation test on human PRP (platelet rich plasma) according to the methodology described in J. Clin. Invest., 1993, 92, 224.231. The compounds are preincubated for 30 minutes before the addition of arginine vasopressin in order to determine the agonist and antagonist properties of these molecules.

Structures are written as SMILES. Where a name gives a salt, the structure may show the parent alone. Where only a bound is given, the exact number is not on record here.

T2 sequence (P37288 whole entry): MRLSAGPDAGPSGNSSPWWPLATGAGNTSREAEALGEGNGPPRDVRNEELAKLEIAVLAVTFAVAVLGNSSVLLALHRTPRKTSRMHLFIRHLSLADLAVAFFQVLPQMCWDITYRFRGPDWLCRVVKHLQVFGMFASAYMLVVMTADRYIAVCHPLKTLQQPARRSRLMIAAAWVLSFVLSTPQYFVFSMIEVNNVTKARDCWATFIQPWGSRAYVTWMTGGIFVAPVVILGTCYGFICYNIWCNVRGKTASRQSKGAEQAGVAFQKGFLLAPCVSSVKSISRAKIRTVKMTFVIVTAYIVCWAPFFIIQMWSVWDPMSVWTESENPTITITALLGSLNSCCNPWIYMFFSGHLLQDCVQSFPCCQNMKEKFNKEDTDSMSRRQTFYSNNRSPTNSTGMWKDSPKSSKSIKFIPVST
Sequence of human V2 receptors (P30518 whole entry): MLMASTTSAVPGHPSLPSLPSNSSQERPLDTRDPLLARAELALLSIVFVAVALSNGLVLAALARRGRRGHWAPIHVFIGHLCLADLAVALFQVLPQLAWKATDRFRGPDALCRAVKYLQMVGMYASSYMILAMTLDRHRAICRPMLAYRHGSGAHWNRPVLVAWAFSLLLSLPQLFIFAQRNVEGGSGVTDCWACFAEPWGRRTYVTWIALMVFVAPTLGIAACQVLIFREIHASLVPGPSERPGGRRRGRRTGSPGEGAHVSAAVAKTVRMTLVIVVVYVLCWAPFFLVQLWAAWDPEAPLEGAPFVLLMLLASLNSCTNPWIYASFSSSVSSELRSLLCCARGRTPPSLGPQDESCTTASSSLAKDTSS

`Cc1ccc2c(n1)C(CCCN1CCNCC1)(c1ccccc1F)C(=O)N2S(=O)(=O)c1ccc(OC(C)C)cc1.Cl` (single isomer, unassigned): the melting point (commonly the temperature, or range, at which the solid turns liquid) is 150 °C.
The same measure, in the same setting: next, `COc1cccc(S(=O)(=O)N2C(=O)C(CCCN3CCCCC3)(c3ccccc3F)c3nc(OC)ccc32)c1.Cl` (single isomer, unassigned): 148 °C.
On the same count and under the same terms, next, `COc1ccc2c(n1)C(CCCN1CCNCC1)(c1ccccc1F)C(=O)N2S(=O)(=O)c1ccc(OC(C)C)cc1` (centres unmarked) (as salt: HCl) [Compound No. 2, 3-(2-fluorophenyl)-1-[(4-isopropoxyphenyl)sulphonyl]-5-methoxy-3-(3-piperazin-1-ylpropyl)-1,3-dihydro-2H-pyrrolo[3,2-b]pyridin-2-one]: 123 °C.
Consider `CCN(CC)C(=O)Nc1ccc(S(=O)(=O)N2C(=O)C(NCCC3CCNCC3)(c3ccccc3Cl)c3cc(Cl)c(C)cc32)cc1` (stereo not drawn) [Compound β, 3-[4-[[5-chloro-3-(2-chlorophenyl)-6-methyl-2-oxo-3-[(2-piperidin-4-ylethyl)amino]-2,3-dihydro-1H-indol-1-yl]sulphonyl]phenyl]-1-diethylurea], for which the IC50 (as a rule, the concentration that inhibits the measured activity by half) is 69 nM in series [1], 13 nM at human V2 receptors, 18 nM at human V1a receptors [2] and 180 nM on human V1b receptors. Further, the “affinity for the human V2 receptors for AVP (in words)” value on human V2 receptors is given as “good affinity”. Further, the “affinity for the human V1a receptors for AVP (in words)” value on human V1a receptors [2] is “good affinity”. For the same compound, the “selectivity for the human V1a and V1b receptors for AVP (in words)” value at human V1a receptors [2] is “not therefore selective”.
In the case of `COc1ccc2c(n1)C(CCCCN1CCNCC1)(c1ccccc1F)C(=O)N2S(=O)(=O)c1ccc(OC(C)C)cc1` (centres unmarked) (as salt: HCl) [compound 14, 3-(2-fluorophenyl)-1-[(4-isopropoxyphenyl)sulphonyl]-5-methoxy-3-(4-piperazin-1-ylbutyl)-1,3-dihydro-2H-pyrrolo[3,2-b]pyridin-2-one], the melting point is 133 °C.
As for `COc1cccc(S(=O)(=O)N2C(=O)C(CCCN3CCNCC3)(c3ccccc3F)c3nc(OC)ccc32)c1.Cl` (single isomer, unassigned), the melting point came out at 178 °C.
`COc1ccc2c(n1)C(CCCN1CCNCC1)(c1ccccc1F)C(=O)N2S(=O)(=O)c1ccc(OC(C)C)cc1` (centres unmarked) [Compound No. 2, 3-(2-fluorophenyl)-1-[(4-isopropoxyphenyl)sulphonyl]-5-methoxy-3-(3-piperazin-1-ylpropyl)-1,3-dihydro-2H-pyrrolo[3,2-b]pyridin-2-one]: the half-inhibitory concentration (IC50) amounted to 71 nM in series [1], 120 nM against human V2 receptors, 0.82 nM on human V1a receptors [2] and 350 nM at human V1b receptors.
Take `COc1ccc2c(n1)C(CCCN1CCNCC1)(c1ccccc1F)C(=O)N2S(=O)(=O)c1cccc(Cl)c1` (centres unmarked) (as salt: HCl) [compound 4, 1-[(3-chlorophenyl)sulphonyl]-3-(2-fluorophenyl)-5-methoxy-3-(3-piperazin-1-ylpropyl)-1,3-dihydro-2H-pyrrolo[3,2-b]pyridin-2-one]: the melting point was determined as 177 °C.
As to `COc1ccc2c(n1)C(CCCN1CCNCC1)(c1ccccc1F)C(=O)N2S(=O)(=O)c1cccc(Cl)c1` (centres unmarked) [No. 4], the “agonist or antagonist character” value at human V1a receptors [3] is “V1a receptor antagonists”.
As for `COc1ccc2c(n1)C(CCCCN1CCNCC1)(c1ccccc1F)C(=O)N2S(=O)(=O)c1ccc(OC(C)C)cc1` (racemic) (as salt: HCl) [Compound No. 10, 3-(2-Fluorophenyl)-1-[(4-isopropoxyphenyl)sulphonyl]-5-methoxy-3-(4-piperazin-1-ylbutyl)-1,3-dihydro-2H-pyrrolo[3,2-b]pyridin-2-one], the melting point came out at 210 °C.
Same read-out and setting: next, `COc1ccc2c(n1)C(CCCN1CCCCC1)(c1ccccc1F)C(=O)N2S(=O)(=O)c1ccc(OC(F)F)cc1` (centres unmarked) (as salt: HCl): 133 °C.
For `CCN(CC)C(=O)Nc1ccc(S(=O)(=O)N2C(=O)C(NCCC3CCNCC3)(c3ccccc3Cl)c3cc(Cl)c(Cl)cc32)cc1` (stereo not drawn) [Compound α, 3-[4-[[5,6-dichloro-3-(2-chlorophenyl)-2-oxo-3-[(2-piperidin-4-ylethyl)amino]-2,3-dihydro-1H-indol-1-yl]sulphonyl]phenyl]-1,1-diethylurea], in series [1], the “affinity for the oxytocin receptors (in words)” value is “good affinity” and the IC50 came out at 100 nM. For the same compound, on human V2 receptors, the “affinity for the human V2 receptors for AVP (in words)” value was “good affinity” and the midpoint of inhibition, the IC50, lay at 19 nM. Also, at human V1a receptors [2], the “affinity for the human V1a receptors for AVP (in words)” value is “good affinity”; the IC50 stood at 23 nM; the “selectivity for the human V1a and V1b receptors for AVP (in words)” value is given as “not therefore selective”. The 50% inhibitory concentration (IC50) at human V1b receptors was 210 nM.
For the compound `COc1ccc2c(n1)C(CCCN1CCCCC1)(c1ccccc1F)C(=O)N2S(=O)(=O)c1cccc(Cl)c1` (centres unmarked) (as salt: HCl), the melting point amounted to 148 °C.
As for `COc1ccc2c(n1)C(CCCN1CCNCC1)(c1ccccc1F)C(=O)N2S(=O)(=O)c1ccc(OC(C)C)cc1` (centres unmarked) [No. 2], the “agonist or antagonist character” value on human V1a receptors [3] was “V1a receptor antagonists”.
Compound `COc1ccc2c(n1)C(CCCN1CCN(C)CC1)(c1ccccc1F)C(=O)N2S(=O)(=O)c1ccc(OC(C)C)cc1` (centres unmarked) (as salt: HCl) [compound 11, 3-(2-fluorophenyl)-1-[(4-isopropoxyphenyl)sulphonyl]-5-methoxy-3-[3-(4-methylpiperazin-1-yl)propyl]-1,3-dihydro-2H-pyrrolo[3,2-b]pyridin-2-one] displayed a melting point of 190 °C.
Regarding `COc1ccc2c(n1)C(CCCN1CCNCC1)(c1ccccc1F)C(=O)N2S(=O)(=O)c1cccc(Cl)c1` (centres unmarked) [compound 4, 1-[(3-chlorophenyl)sulphonyl]-3-(2-fluorophenyl)-5-methoxy-3-(3-piperazin-1-ylpropyl)-1,3-dihydro-2H-pyrrolo[3,2-b]pyridin-2-one], the half-inhibitory concentration (IC50) in series [1] is above 1000 nM; at human V2 receptors it was above 1000 nM; at human V1a receptors [2], 8.9 nM; on human V1b receptors, above 1000 nM.
`COc1ccc2c(n1)C(CCCN1CCN(C)CC1)(c1ccccc1F)C(=O)N2S(=O)(=O)c1ccc(OC(C)C)cc1` (centres unmarked) [compound 11, 3-(2-fluorophenyl)-1-[(4-isopropoxyphenyl)sulphonyl]-5-methoxy-3-[3-(4-methylpiperazin-1-yl)propyl]-1,3-dihydro-2H-pyrrolo[3,2-b]pyridin-2-one]: the IC50 was 100 nM in series [1], 210 nM on human V2 receptors, 7.1 nM on human V1a receptors [2] and above 1000 nM at human V1b receptors.
`COc1ccc2c(n1)C(CCCCN1CCN(C)CC1)(c1ccccc1F)C(=O)N2S(=O)(=O)c1ccc(OC(C)C)cc1` (centres unmarked) (as salt: salt) registered a melting point of 52 °C.
In turn, `COc1ccc2c(n1)C(CCCN1CCCCC1)(c1ccccc1F)C(=O)N2S(=O)(=O)c1ccc(OC(C)C)cc1` (centres unmarked) (as salt: HCl) showed a melting point of 157 °C.
